According to US7504380B2, “Antimicrobial peptide isolated from halocynthia aurantium” (Industry-Academic Cooperation Foundation, Hoseo University, priority 2002, dated 2009):

Assays:
[1] = system: Gram negative bacteria such as Pseudomonas aeruginosa, Salmonella cholerasuis, Salmonella parotyphi A, E. coli K112 and E. coli DH5α; test: radial diffusion assay, Gram-negative bacteria; type: cell-based; conditions: FIG. 12-14
human erythrocytes = type: cell-based
Description: In order to investigate […] of halocidin, the present inventors performed hemolytic assay. Particularly, mixed 20 μl of peptide diluted to 100, 50, 25, 12.5, 6.25, 3.125 μg/ml and 180 μl of 2.5% (V/V) human erythrocytes in PBS. Used melittin (Sigma) and clavanin AK, a congener in which clavanin A residue was substituted, for comparative group, and 0.01% acetic acid for control group. After reacting the mixture at 37° C. for 30 minutes, added 600 μl of PBS into each tube. Centrifuged the solution at 10,000 g for 3 minutes and separated supernatants. Measured OD at 540 nm and calculated the hemolytic activity (%) according to the below <Mathematical Formula 1>.

[2] = system: Gram-positive bacteria such as Staphylococcus aureus, Micrococcus luteus, Enterococcus faecalis, Bacillus subtilus and MRSA; test: radial diffusion assay, Gram-positive bacteria; type: cell-based; conditions: FIG. 15-17
Description: In order to measure the antimicrobial activity of acid extracts of Halocynthia aurantium obtained in the above Example <1-1>, the present inventors performed ultrasensitive radial diffusion assay. Particularly, analyzed 150 fractions eluted in the above Example <1-1> 5 times each. Took 100 μl from 2 ml of each fraction and concentrated thereof with a vacuum centrifugation (Centra Evaporator, Bioneer, Korea), which was suspended in 5 μl of 0.01% acetic acid solution. Meanwhile, prepared agarose plate including wells 3 mm in diameter by adding methicillin resistance Staphylococcus aureus (referred as “MRSA” hereinafter, Seoul Women's University, Korea CCARM3001) of mid-logarithmic phase to gel comprising sterilized citrate phosphate buffer (9 mM sodium phosphate, 1 mM sodium citrate, pH 7.4), 1% (w/v) type 1 agarose (low electroendosmosis agarose) (A 6013, Sigma) and 3% tryptic soy broth (TSB, Difco, Detroit, Mich., USA). Loaded the above fractions onto the wells of agarose plate containing the above bacteria. Reacted thereof for 3 hours to make the peptides spread into the agarose gel. Added 10 ml of overnutrition medium comprising 6% TSB and 1% agarose gel thereto. Cultured the above plate for overnight until the colonies of the above bacteria were formed. […]

[3] = system: multi drug resistance Pseudomonas aeruginosa (MDRPA); test: ultra-sensitive radial diffusion assay, MDRPA; type: cell-based; conditions: according to the concentration of the peptides; FIG. 9B, 9D
Description: (§1) In order to measure the antimicrobial activity of acid extracts of Halocynthia aurantium obtained in the above Example <1-1>, the present inventors performed ultrasensitive radial diffusion assay. Particularly, analyzed 150 fractions eluted in the above Example <1-1> 5 times each. Took 100 μl from 2 ml of each fraction and concentrated thereof with a vacuum centrifugation (Centra Evaporator, Bioneer, Korea), which was suspended in 5 μl of 0.01% acetic acid solution. Meanwhile, prepared agarose plate including wells 3 mm in diameter by adding methicillin resistance Staphylococcus aureus (referred as “MRSA” hereinafter, Seoul Women's University, Korea CCARM3001) of mid-logarithmic phase to gel comprising sterilized citrate phosphate buffer (9 mM sodium phosphate, 1 mM sodium citrate, pH 7.4), 1% (w/v) type 1 agarose (low electroendosmosis agarose) (A 6013, Sigma) and 3% tryptic soy broth (TSB, Difco, Detroit, Mich., USA). Loaded the above fractions onto the wells of agarose plate containing the above bacteria. Reacted thereof for 3 hours to make the peptides spread into the agarose gel. Added 10 ml of overnutrition medium comprising 6% TSB and 1% agarose gel thereto. Cultured the above plate for overnight until the colonies of the above bacteria were formed. Confirmed the antimicrobial activity of the loaded peptide by measuring the diameter of clearing zone formed around the loaded peptide fraction.
(§2) The present inventors performed ultra-sensitive radical diffusion assay with synthetic peptides prepared in the above Example <2-2>. Particularly, measured antimicrobial activity of each 15Hc, di-15Hc, 18Hc, di-18Hc, halocidin, magainin 1 (Sigma) (control group) and buforin 2 (Sigma) (comparative group) against MRSA and multi drug resistance Pseudomonas aeruginosa (referred as “MDRPA” hereinafter)(Seoul Women's University CCARM2002) according to the concentration of the peptides.

Enterococcus faecalis = test: radial diffusion assay, Enterococcus faecalis; type: cell-based; design: unit not given here
Description: as §1
(§3) Particularly, adjusted the pH of media to 7.4, 6.5 and 5.5 respectively by adding HCl, which was checked with a pH meter, and performed radical diffusion assay with the same method as the above Example 1 to investigate the antimicrobial activity to MRSA and Enterococcus faecalis.
(§4) Particularly, changed the basic condition of media by adding 100 mM NaCl, 150 mM NaCl and 200 mM NaCl respectively, and investigated the antimicrobial activity to MRSA and Enterococcus faecalis by radical diffusion assay.

[4] = system: methicillin resistance Staphylococcus aureus (MRSA); test: ultrasensitive radial diffusion assay, MRSA; type: cell-based; design: antimicrobial activity according to pH, MRSA / antimicrobial activity according to NaCl, MRSA: unit not given here; conditions: for antimicrobial activity to MRSA strain (diameter of clear zone): according to the concentration of the peptides, FIG. 9A, 9C
Description: as §1, §2, §3, §4

MDRPA strain = test: colony counting assay, MDRPA; type: cell-based, Pseudomonas aeruginosa; conditions: peptide 5 μg/ml, 5 and 15 minutes; FIG. 10
Description: (§5) In order to investigate antimicrobial activity of halocidin, the present inventors performed colony counting assay. Particularly, adjusted the final concentration of the peptide to 5 μg/ml by mixing the peptide and MRSA strain or MDRPA strain of mid-log phase in sterilized 10 mM sodium phosphate buffer (pH 7.4) containing 0.3 mg/id of TSB powder. Adjusted the final volume of the above mixture to 100 μl, and then let it be pre-reacted in a 37° C. shaking water bath for 5 and 15 minutes each. Collected 20 μl of pre-reacted solution and loaded thereof onto 1.5% bacto-agar plate (Difco). Induced reaction for overnight and counted the number of formed colonies on the above plate, from which measured the antimicrobial activity. Used magainin 1 and buforin 2 for comparative group, and 0.01% acetic acid for control group.

MRSA strain = test: colony counting assay, MRSA; type: cell-based, Staphylococcus aureus; conditions: peptide 5 μg/ml, 5 and 15 minutes; FIG. 10
Description: as §5

Substance | antimicrobial activity to Gram-negative bacteria [1] | hemolytic activity (human erythrocytes) [%] | antimicrobial activity to Gram-positive bacteria [2] | antimicrobial activity to MDRPA strain (diameter of clear zone) [3] | antimicrobial activity according to NaCl, Enterococcus faecalis (Enterococcus faecalis; NaCl 100 mM) | antimicrobial activity according to NaCl, Enterococcus faecalis (Enterococcus faecalis; NaCl 150 mM) | antimicrobial activity according to NaCl, Enterococcus faecalis (Enterococcus faecalis; NaCl 200 mM) | antimicrobial activity according to pH, Enterococcus faecalis (Enterococcus faecalis; pH = 5.5) | antimicrobial activity according to pH, Enterococcus faecalis (Enterococcus faecalis; pH = 6.5) | antimicrobial activity according to pH, Enterococcus faecalis (Enterococcus faecalis; pH = 7.4) | antimicrobial activity according to NaCl, MRSA ([4]; NaCl 100 mM) | antimicrobial activity according to NaCl, MRSA ([4]; NaCl 150 mM) | antimicrobial activity according to NaCl, MRSA ([4]; NaCl 200 mM) | antimicrobial activity to MRSA strain (diameter of clear zone) [4] | antimicrobial activity according to pH, MRSA ([4]; pH = 5.5) | antimicrobial activity according to pH, MRSA ([4]; pH = 6.5) | antimicrobial activity according to pH, MRSA ([4]; pH = 7.4) | antimicrobial activity by colony counting, MDRPA (MDRPA strain) | antimicrobial activity by colony counting, MRSA (MRSA strain)
15Hc: 15-amino-acid monomer of halocidin; 18Hc lacking three N-terminal amino acids, SEQ. ID. No 2 (WLNALLHHGLNCAKG; PEPTIDE (1)..(1) 15mer of halocydin; listed as Halocynthia aurantium) [Peptide 15Hc, 15-amino-acid monomer of halocidin; ID; No 2] | hardly showed or had minimum antimicrobial activity | 0 | low antimicrobial activity | higher antimicrobial activity than comparative group | – | – | – | – | – | – | – | – | – | – | – | – | – | – | –
Buforin 2 | – | – | – | proved to have antimicrobial activity | >64 | >64 | >64 | >64 | >64 | >64 | >64 | >64 | >64 | proved to have antimicrobial activity | >64 | >64 | >64 | – | –
KWLNALLHHGLNCAKGVLA (PEPTIDE (1)..(19) 19mer of halocydin; listed as Halocynthia aurantium) [K(18 + 1)Hc, ID; No 9] | – | – | – | – | 16-32 | 16-32 | 16-32 | 16-32 | 16-32 | 8-16 | 16-32 | 16-32 | 32-64 | – | 32-64 | 16-32 | 16-32 | – | –
Magainin 1 (GIGKFLHSAGKFGKAFVGEIMKS; Magainin-1; UniProt P11006 37-59, looked up) [magainin 1 (Sigma), control/comparative antimicrobial peptide] | – | – | – | proved to have antimicrobial activity | >64 | >64 | >64 | >64 | >64 | >64 | >64 | >64 | >64 | – | >64 | >64 | >64 | – | –
Secrofin A | – | – | – | – | >64 | >64 | >64 | >64 | >64 | >64 | >64 | >64 | >64 | – | >64 | >64 | >64 | – | –
WLNALLHHGLNCAKGVLA (PEPTIDE (1)..(1) 18mer of halocydin; listed as Halocynthia aurantium) [Peptide 18Hc, ID; No 1] | hardly showed or had minimum antimicrobial activity | 9 | low antimicrobial activity | higher antimicrobial activity than comparative group | – | – | – | – | – | – | – | – | – | higher antimicrobial activity than buforin 2 | – | – | – | high antimicrobial activity | high antimicrobial activity
